# Results taken from patent US20240366648A1, “NAD-AUGMENTATION THERAPY FOR PARKINSON'S DISEASE” (Vestlandets Innovasjonsselskap AS (VIS), priority 2021, published 2024).
# Tests used:
# [1] = system: cerebral NAD; test: 31P-MRS of the brain, phase I trial of oral NR in newly diagnosed PD patients; format: in vivo, human
# Experimental: A trial of tolerability and cerebral bioavailability of NAD supplementation therapy with nicotinamide riboside (“NR”), provided in the form of nicotinamide riboside chloride ([…]® from Chromadex) in PD patients was completed. In the trial, 30 individuals with newly diagnosed, drug naïve PD were randomized and given NR 500 mg×2/day or placebo for a period of 30 days. 31P-MRS was performed at baseline (Visit 1) and at on the last day of treatment (Visit 2). The scans of 27 individuals passed quality control at both visits. A single-center, double-blinded, randomized, placebo-controlled phase I trial of oral NR supplementation in newly diagnosed patients with PD was conducted. […] Due to the early onset, this patient underwent genetic investigation with whole-exome sequencing and SNP-chip based genome-wide copy number variation analysis, which excluded pathogenic mutations in PD-related genes, including PINK1 and PRKN. screening. Patient recruitment, inclusion, and follow-up was carried out by a GCP certified investigator. Sample size of 30 participants was chosen based on previously reported brain metabolic network analyses. Thirty PD patients were randomly assigned (Block size 6, allocation 1:1) to 500 mg NR, provided in the form of nicotinamide riboside chloride ([…]® from Chromadex), or placebo twice per day, 12 hours apart, using the electronic Case Report Form (Viedoc.com). The drug containers were sequentially marked by an independent third party. The […]®) and placebo were provided by ChromaDex, USA. Each NR capsule contained 250 mg of NR. Placebo capsules contained microcrystalline cellulose. The vials and capsules containing NR and placebo were identical in shape, colour, and smell. Study drug compliance was calculated from counting returned number of study capsules and self-reporting. Participants, examining physicians, medical- and research personnel were blinded for the duration of the trial. Sample size was determined by comparing previous literature with respect to the primary objective. At screening for trial entry, candidates underwent physical and neurological examination, brain MRI, and […]. Eligible patients who entered the trial were assessed at baseline (visit 1, V1) and after four weeks of exposure to either NR or placebo (visit 2, V2). At both visits, patients underwent physical and neurological examination, including assessment by the Movement Disorder Society Unified Parkinson's Disease Rating Scale section I-IV (MDS-UPDRS), and biological sampling. MR-PET was performed within one week prior to visit 1, and at visit 2. All participants remained naïve for antiparkinson drugs for the duration of the trial. All clinical assessments were performed by a blinded movement disorders expert. Each patient was examined by the same neurologist at both visits. Methodological details on each procedure are provided below. Safety was monitored through routine clinical blood tests and registration of adverse events. Adverse events (AE) were recorded and scored by the investigative physician. […] The AE relation to the study drug was scored as (1) unrelated, (2) unlikely, (3) possible, (4) probable or (5) definitely. MRI/S was conducted on a 3T Biograph mMR MR-PET scanner (Siemens Healthcare, Germany). Phosphorous MRS (31P-MRS) was performed on a double-resonant transmit/receive 1H/31P volume head-coil (Rapid Biomedical, Germany). […]
# [2] = system: nigrostriatal degeneration or denervation (DAT loss); test: Follow-up DAT-scan of phase I participants (Example 4); format: in vivo, human
# Description: In the study of the present Example 4, […] of the participants from the study of Example 2 (9 receiving placebo and 11 receiving NR) were examined by a second DAT-scan 1-1.5 year after the completion of the study, for entry into the study of Example 3. […] FIG. 15 represents box plots showing the change (delta) of the DAT-scan tracer uptake in the posterior putamen between the second and first examination (delta=scan2−scan1). […] The data is normally distributed (Shapiro-Wilk normality test).
# [3] = system: individuals with PD; test: Phase II trial, brain MRI at baseline and week 52 (Example 3); format: in vivo, human; conditions: 80 individuals who completed 52 weeks (1000 mg NR or placebo, blinded)
# Experimental: To further test NR as a neuroprotective therapy for PD, and in particular to assess NR in delaying nigrostriatal degeneration or denervation, and clinical disease progression in patients with early PD, a multi-centre phase II randomized double-blinded clinical trial is performed, comparing NR to placebo in individuals with early stage PD.
# Each capsule of NR contains 250 mg of NR. Patients are administered orally 2 capsules (each 250 mg) two times a day (1000 mg daily total) for the duration of the study (52 weeks). Placebo capsules are administered similarly (2 capsules two times a day). The study medication is to be taken every day during the treatment period, including prior to study visits and imaging.
# The present study is a randomized, double-blind phase 11 trial, where a total of 400 individuals with PD receive 1000 mg NR or placebo for a period of 52 weeks. Extensive medical testing and screening, including brain MRI, is performed both at baseline and end-of-study (i.e., after 52 weeks of exposure). […] The therapy can therefore be considered not to be associated with an increase in glioma or brain neoplasm prevalence over the duration of treatment.
# [4] = system: healthy individuals; conditions: cited from earlier work
# [5] = system: yeast; conditions: Belenky et al. 2007; cited from earlier work
# [6] = system: drosophila fly models; conditions: Schöndorf et al. 2018; cited from earlier work
compound,measurement,setting,value
"NC(=O)c1ccc[n+]([C@@H]2O[C@H](CO)[C@@H](O)[C@H]2O)c1 [NR, nicotinamide riboside]","cerebral NAD levels normalized to ATP-α, visit 2 vs baseline","[1]; NR group n=13, oral NR 500 mg x2/day, 30 days, paired t-test p=0.016",highly significant increase
same,"other metabolites detected by 31P-MRS, change between visits","[1]; NR group, 30 days",No other detected metabolites exhibited significant change
same,patients showing an increase in cerebral NAD (MRS-responders),"[1]; NR recipients with MRS data, 30 days",10/13
same,patients with cerebral NAD change exceeding 10% of baseline levels,[1]; of the 10 MRS-responders among 13 NR recipients,9
same,"between visit change (visit 2/visit 1) in NAD/ATP-α ratio, NR vs placebo group","[1]; oral NR 500 mg x2/day, 30 days, t-test p=0.025",significantly higher
same,"progression of the DAT loss between first and second DAT-scan, NR vs placebo group","[2]; second scan 1-1.5 year after the study, posterior putamen, t-test p=0.35",no significant difference
same,trend in progression of nigrostriatal denervation in NR group,"[2]; smaller difference between the two examinations, p=0.35",non-significant trend for decreased progression
same,cases of glioma or other brain neoplasms on brain MRI,[3],no cases of glioma or any other brain neoplasms
same,oral bioavailability in humans,[4]; Trammell et al. 2016,good oral bioavailability
same,total levels of NAD and related metabolites in blood and muscle,"[4]; healthy individuals, oral 1000 mg NR daily",substantially elevates
same,lifespan in yeast,[5],extends lifespan
same,mitochondrial defects and dopaminergic neuronal loss in drosophila fly models,[6],rescues mitochondrial defects and age-related dopaminergic neuronal loss
